# Patent publication US20250340565A1, “CD73 INHIBITOR COMPOUNDS” (AdoRx Therapeutics Limited, priority 2022, published 2025)
# Key:
# CD73 in whole blood = CD73 in whole blood (Homo sapiens (Human), UniProt P21589); assay: Whole blood AMP Glo assay; format: cell-based; conditions: whole blood of healthy volunteers, 10 μM AMP, 30 min pre-incubation, 15 min at 37° C., levamisole 1.5 mM
# Outline: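 Heparinised healthy-donor human whole blood, with 1.5 mM levamisole, preincubated with compound 30 min at 37 °C, then 10 μM AMP added for 15 min at 37 °C (0.6% DMSO). Remaining plasma AMP measured by AMP-Glo luminescence against a standard curve; IC50 from curve inflection point.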
# [1] = biological target: human (h)CD73 (amino acids Trp27-Lys547) (Homo sapiens, UniProt P21589); assay: CD73 inhibition assay (Malachite Green phosphate detection); format: biochemical; conditions: 250 pM hCD73, 12.5 μM AMP, 20 min pre-incubation, absorbance 620 nm
# Outline: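 250 pM hCD73 (Trp27-Lys547) preincubated 20 min with compound (1% DMSO) in 25 mM Tris pH 7.5, 5 mM MgCl2, 0.002% Tween20. Reaction with 12.5 μM AMP for 20 min at room temperature; phosphate detected by malachite green at 620 nm. Data normalised to no compound (0%) and 10 μM control compound (100%).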
# [2] = biological target: CD73 activity in U138-MG cells (Homo sapiens (Human), UniProt P21589); assay: U138-MG inhibition assay (inorganic phosphate from AMP, PiColorLock Gold); format: cell-based; conditions: 100 μM AMP, 30 min pre-incubation, 1 hour at 37° C.
# Outline: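 Washed U138-MG cells in HEPES-buffered saline (pH 7.4) preincubated 30 min at 37 °C with inhibitor, then given 100 μM AMP (final) for 1 h at 37 °C. Released phosphate in supernatant read by PiColorLock Gold; no-AMP wells define 100% inhibition. IC50 taken as inflection of sigmoidal curve.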
# Sequence of CD73 in whole blood (P21589 27-574): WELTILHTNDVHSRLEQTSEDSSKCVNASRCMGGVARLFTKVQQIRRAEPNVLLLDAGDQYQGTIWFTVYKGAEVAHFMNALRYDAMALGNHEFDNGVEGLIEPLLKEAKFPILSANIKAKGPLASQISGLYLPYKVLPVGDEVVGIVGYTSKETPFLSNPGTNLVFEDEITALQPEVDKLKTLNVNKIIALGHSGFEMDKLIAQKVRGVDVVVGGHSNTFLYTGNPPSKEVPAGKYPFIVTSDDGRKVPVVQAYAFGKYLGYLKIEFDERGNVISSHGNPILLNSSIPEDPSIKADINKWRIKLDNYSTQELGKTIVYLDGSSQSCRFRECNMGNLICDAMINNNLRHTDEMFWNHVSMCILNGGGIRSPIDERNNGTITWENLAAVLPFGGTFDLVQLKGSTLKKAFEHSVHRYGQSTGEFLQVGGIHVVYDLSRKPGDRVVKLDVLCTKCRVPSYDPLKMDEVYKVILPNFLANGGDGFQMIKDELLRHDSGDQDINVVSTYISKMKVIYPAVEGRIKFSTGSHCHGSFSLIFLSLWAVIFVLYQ
# Sequence of CD73 activity in U138-MG cells (P21589 27-574): as above
IC50 (CD73 in whole blood),IC50 [1],IC50 [2],Compound
40.2 nM,100 nM,70.8 nM,"O=c1[nH]cc(-c2cc3c(N4CCC(OCCN5CCC(C(F)(F)F)CC5)C4)ncnc3o2)c(=O)[nH]1 (stereo not drawn) [Example 21, 5-[4-[3-[2-[4-(Trifluoromethyl)-1-piperidyl]ethoxy]pyrrolidine-1-yl]furo[2,3-d]pyrimidin-6-yl]-1H-pyrimidine-2,4-dione]"
65.5 nM,136 nM,84.5 nM,"O=C(OC1CN(c2ncnc3oc(-c4c[nH]c(=O)[nH]c4=O)cc23)CC1(F)F)N1CCOCC1 (stereo not drawn) [Example 22, [1-[6-(2,4-Dioxo-1H-pyrimidin-5-yl)furo[2,3-d]pyrimidin-4-yl]-4,4-difluoro-pyrrolidin-3-yl]morpholine-4-carboxylate]"
139 nM,152 nM,61.9 nM,"O=C(OC1CN(c2ncnc3oc(-c4c[nH]c(=O)[nH]c4=O)cc23)CC1(F)F)N1CC2CCC(C1)O2 (stereo not drawn) [Example 22.1, [1-[6-(2,4-Dioxo-1H-pyrimidin-5-yl)furo[2,3-d]pyrimidin-4-yl]-4,4-difluoro-pyrrolidin-3-yl]8-oxa-3-azabicyclo[3.2.1]octane-3-carboxylate]"
1.5 nM,152 nM,10.5 nM,"Cc1nc(N2CC(C)(C)C(F)(F)C2)c2cn(-c3c[nH]c(=O)[nH]c3=O)nc2n1 [Example 23, 5-[4-(3,3-Difluoro-4,4-dimethyl-pyrrolidin-1-yl)-6-methyl-pyrazolo[3,4-d]pyrimidin-2-yl]-1H-pyrimidine-2,4-dione]"
1.4 nM,35.5 nM,11.8 nM,"N#Cc1ccc(OC2CCN(c3ncnc4nn(-c5c[nH]c(=O)[nH]c5=O)cc34)C2)nc1 (stereo not drawn) [Example 24, 6-[1-[2-(2,4-Dioxo-1H-pyrimidin-5-yl)pyrazolo[3,4-d]pyrimidin-4-yl]pyrrolidine-3-yl]oxypyridine-3-carbonitrile]"
155 nM,34.2 nM,38.6 nM,"CC1(C)CN(c2nccn3nc(-c4c[nH]c(=O)[nH]c4=O)cc23)CC1(F)F [Example 25, 5-[4-(3,3-Difluoro-4,4-dimethyl-pyrrolidin-1-yl)pyrazolo[1,5-a]pyrazin-2-yl]-1H-pyrimidine-2,4-dione]"
645 nM,42.3 nM,38.3 nM,"O=c1[nH]cc(-c2cc3c(N4CC(F)(F)C5(CCC5)C4)nccn3n2)c(=O)[nH]1 [Example 25.1, 5-[4-(8,8-Difluoro-6-azaspiro[3.4]octan-6-yl)pyrazolo[1,5-a]pyrazin-2-yl]-1H-pyrimidine-2,4-dione]"
38 nM,16 nM,2.8 nM,"CC1(C)CN(c2ncc(Cl)n3nc(-c4c[nH]c(=O)[nH]c4=O)cc23)CC1(F)F [Example 25.8, 5-[7-chloro-4-(3,3-difluoro-4,4-dimethyl-pyrrolidin-1-yl)pyrazolo[1,5-a]pyrazin-2-yl]-1H-pyrimidine-2,4-dione]"
18000 nM,58 nM,22 nM,"CC1(C)CN(c2ncc(C(F)(F)F)n3nc(-c4c[nH]c(=O)[nH]c4=O)cc23)CC1(F)F [Example 25.9, 5-[4-(3,3-difluoro-4,4-dimethyl-pyrrolidin-1-yl)-7-(trifluoromethyl)pyrazolo[1,5-a]pyrazin-2-yl]-1H-pyrimidine-2,4-dione]"
16 nM,55.6 nM,2.9 nM,"CC1(C)CN(c2ncc(F)c3nn(-c4c[nH]c(=O)[nH]c4=O)cc23)CC1(F)F [Example 26, 5-[4-(3,3-Difluoro-4,4-dimethyl-pyrrolidin-1-yl)-7-fluoro-pyrazolo[4,3-c]pyridin-2-yl]-1H-pyrimidine-2,4-dione]"
37 nM,22.9 nM,5 nM,"O=c1[nH]cc(-n2cc3c(N4CC(F)(F)C5(CCC5)C4)ncc(F)c3n2)c(=O)[nH]1 [Example 26.1, 5-[4-(8,8-difluoro-6-azaspiro[3.4]octan-6-yl)-7-fluoro-pyrazolo[4,3-c]pyridin-2-yl]-1H-pyrimidine-2,4-dione]"
69 nM,68.2 nM,17 nM,"O=c1[nH]cc(-n2cc3c(N4CCC5(COC5)C4)ncc(F)c3n2)c(=O)[nH]1 [Example 26.4, 5-[7-fluoro-4-(2-oxa-7-azaspiro[3.4]octan-7-yl)pyrazolo[4,3-c]pyridin-2-yl]-1H-pyrimidine-2,4-dione]"
254 nM,46 nM,14 nM,"O=c1[nH]cc(-n2cc3c(N4CC(F)(F)C5(CC5)C4)ncc(F)c3n2)c(=O)[nH]1 [Example 26.5, 5-[4-(7,7-difluoro-5-azaspiro[2.4]heptan-5-yl)-7-fluoro-pyrazolo[4,3-c]pyridin-2-yl]-1H-pyrimidine-2,4-dione]"
16 nM,65 nM,20 nM,"CC1(C)CN(c2nccc3nn(-c4c[nH]c(=O)[nH]c4=O)cc23)CC1(F)F [Example 27, 5-[4-(3,3-Difluoro-4,4-dimethyl-pyrrolidin-1-yl)pyrazolo[4,3-c]pyridin-2-yl]-1H-pyrimidine-2,4-dione]"
20 nM,15 nM,3.6 nM,"O=c1[nH]cc(-n2cc3c(N4CC(F)(F)C5(CC5)C4)ncc(Cl)c3n2)c(=O)[nH]1 [Example 28.1, 5-[7-chloro-4-(7,7-difluoro-5-azaspiro[2.4]heptan-5-yl)pyrazolo[4,3-c]pyridin-2-yl]-1H-pyrimidine-2,4-dione]"
26 nM,20 nM,1.9 nM,"O=c1[nH]cc(-n2cc3c(N4CC(F)(F)C5(CCC5)C4)ncc(Cl)c3n2)c(=O)[nH]1 [Example 28.2, 5-[7-chloro-4-(8,8-difluoro-6-azaspiro[3.4]octan-6-yl)pyrazolo[4,3-c]pyridin-2-yl]-1H-pyrimidine-2,4-dione]"
47 nM,52 nM,8 nM,"CC1(C)CN(c2ncc(C#N)c3nn(-c4c[nH]c(=O)[nH]c4=O)cc23)CC1(F)F [Example 29, 4-(3,3-difluoro-4,4-dimethyl-pyrrolidin-1-yl)-2-(2,4-dioxo-1H-pyrimidin-5-yl)pyrazolo[4,3-c]pyridine-7-carbonitrile]"
20 nM,115 nM,12 nM,"CC1(C)CN(c2ccnc3nn(-c4c[nH]c(=O)[nH]c4=O)cc23)CC1(F)F [Example 30, 5-[4-(3,3-difluoro-4,4-dimethyl-pyrrolidin-1-yl)pyrazolo[3,4-b]pyridine-2-yl]-1H-pyrimidine-2,4-dione]"
32 nM,20.8 nM,12.3 nM,"CC1(C)CN(c2cncc3nn(-c4c[nH]c(=O)[nH]c4=O)cc23)CC1(F)F [Example 31, 5-[4-(3,3-difluoro-4,4-dimethyl-pyrrolidin-1-yl)pyrazolo[3,4-c]pyridine-2-yl]-1H-pyrimidine-2,4-dione]"
